US10378058B2, “Diagnostic and therapeutic methods and compositions involving PTEN and breast cancer” (Board of Regents of The University of Texas System, priority 2003, dated 2019)
“Also recorded” adds a separate entry of the source.

Columns and labels:
PTEN [1] = test: PTEN tyrosine phosphorylation in 435.eB cells; type: cell-based; conditions: vs solvent 10% DMSO
Protocol: (§1) Preparation of Cell Lysates, Immunoprecipitation, and Western Blot Analysis. Cells at 70%-80% confluence were treated with each reagent indicated in the individual experiments. For PTEN phosphotyrosine immunoblots, ErbB2 IP, and Src IP, cells were treated with 30 mM pervanadate for 10 min as described (Lu et al., 2003). Unless noted, cells were washed with PBS and lysed in IP buffer with protease inhibitor cocktail (Sigma Chemical Co., St. Louis, Mo.). Immunoprecipitation and Western blot analysis were performed (Yu et al., 1998).

Src = molecular target: T1, Src (Homo sapiens, UniProt P12931); test: Src-Y416 phosphorylation in 435.eB cells; type: cell-based; conditions: vs solvent 10% DMSO
T1 construct: endogenous in cells; host or cells: 435.eB cells
Protocol: as §1

BT474 cells = test: Cell viability assay of BT474 cells; type: cell-based, human; conditions: paclitaxel alone without trastuzumab
Protocol: (§2) Cell viability assay. Cells were seeded at 1-5×10^3 cells/well in 96-well plates after oligonucleotide transfection. Viable cells were determined by CellTiter 96 AQueous Non-Radioactive Cell Proliferation Assay (Promega, Madison, Wis.).

PTEN [2] = test: PTEN expression in BT474 xenografts injected with oligonucleotides; type: in vivo, mice; conditions: intratumor injection 15 μg/injection twice a week for 1 week, ErbB2 expression remained the same
Protocol: Animal experiment. Female athymic nude mice (Harlan Sprague Dawley, Indianapolis, Ind.) were implanted with 0.72-mg 60-day-release 17β-estradiol pellets (Innovative Research, Sarasota, Fla.) and irradiated at 3.5 Gy prior to inoculation. BT474 cells (8×10^6) in 200 μl of PBS and Matrigel (BD Biosciences, Bedford, Mass.) mixture (1:1 ratio) were injected subcutaneously into a mouse mammary fat pad (mfp). When the mfp tumor volume reached >150 mm^3, the tumor was treated with PTEN antisense or control mismatched oligonucleotides (30 μg/week) in saline. […] Tumor diameters were serially measured with calipers and tumor volumes calculated: volume=width^2×length/2. Each treatment group contained 8-12 mice. Unpaired Student's t-test was used to assess statistical significance.

SKBr3 cells = test: Cell proliferation of SKBr3 cells (MTS assay); type: cell-based, human; conditions: PTEN AS alone without trastuzumab, vs MIS
Protocol: as §2

PTEN [3] = test: PTEN expression after antisense transfection in vitro; type: cell-based, human; conditions: SKBr3 cells, 25 nM, vs mock or mismatched (MIS) oligonucleotides
Protocol: Antisense Delivery in vitro. Antisense oligonucleotides against PTEN (ISIS116847: 5′-[…]-3′) (SEQ ID NO:3) and control oligonucleotides (ISIS 116848: 5′-[…]-3′ (SEQ ID NO:4), with six base mismatches to ISIS 116847) have been described (Butler et al., 2002). Cells were plated in 100-mm dishes at 30% confluence and transfected with oligonucleotides (12.5 nM for BT474 and 25 nM for SKBr3 cells) twice using Oligofectamine (Life Technologies, Rockville, Md.) 24 and 72 h post-plating. Ninety-six hours post-plating, cells were re-plated for individual assays described in this report. PTEN expression was determined 120 h post-plating (FIG. 2A).
as §1

T1 sequence (P12931 whole entry): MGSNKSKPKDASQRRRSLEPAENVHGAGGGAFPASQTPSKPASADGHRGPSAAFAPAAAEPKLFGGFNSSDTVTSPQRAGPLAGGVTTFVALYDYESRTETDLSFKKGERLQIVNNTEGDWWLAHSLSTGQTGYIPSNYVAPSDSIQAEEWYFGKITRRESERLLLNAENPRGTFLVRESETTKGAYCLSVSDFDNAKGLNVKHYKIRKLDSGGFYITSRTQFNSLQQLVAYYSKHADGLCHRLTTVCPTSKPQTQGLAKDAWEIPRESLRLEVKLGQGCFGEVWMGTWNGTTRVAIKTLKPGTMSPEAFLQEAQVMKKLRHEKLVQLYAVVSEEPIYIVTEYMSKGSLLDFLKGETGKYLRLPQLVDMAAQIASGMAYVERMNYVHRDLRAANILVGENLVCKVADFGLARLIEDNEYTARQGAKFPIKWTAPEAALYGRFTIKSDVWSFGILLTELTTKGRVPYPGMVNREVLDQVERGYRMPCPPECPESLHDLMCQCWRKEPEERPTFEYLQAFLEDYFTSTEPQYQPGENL

CC(C)(C)n1nc(-c2ccc(Cl)cc2)c2c(N)ncnc21 [PP2]
tyrosine phosphorylation of PTEN (PTEN [1]): dramatically reduced tyrosine phosphorylation of PTEN
Src phosphorylation on Y416 (Src): effectively inhibited Src phosphorylation on Y416

CC(=O)O[C@H]1C(=O)[C@@]2(C)[C@H]([C@H](OC(=O)c3ccccc3)[C@]3(O)C[C@H](OC(=O)[C@H](O)[C@@H](NC(=O)c4ccccc4)c4ccccc4)C(C)=C1C3(C)C)[C@]1(OC(C)=O)CO[C@@H]1C[C@@H]2O [paclitaxel]
cell viability, PTEN AS-transfected vs MIS control-transfected cells (BT474 cells): no statistically significant difference in cell viability

PTEN AS: Antisense oligonucleotides against PTEN, 5′-CTGCTAGCCTCTGGATTTGA-3′ (SEQ ID NO:3) (listed as DNA, chemistry not given here)
PTEN expression in tumor xenografts (PTEN [2]): effectively inhibited; also recorded: reduced
cell proliferation (SKBr3 cells): no significant effect on cell proliferation
endogenous PTEN expression (PTEN [3]): inhibited endogenous PTEN expression; also recorded: reduced
